From patent US3965109A, “Certain aryl amino pyridines” (priority 1971, dated 1976)

How the values were obtained:
[1] = test system: Corynebacterium michiganense; assay: Antibacterial agar test (B2); assay type: cell-based; details: 50 ppm; 5 days
Method: (§1) This Example illustrates the activity of compounds used as the active ingredients of compositions according to the invention against a variety of plant bacterial diseases and fungal post-harvest saprophytic diseases. In a test for such activity, 5 milligrams of the compound to be tested was dissolved or suspended in 10 ml. of acetone and enough of this solution or suspension was added to 18 ml. of nutrient agar (for the bacterial diseases) or 16 ml. of 2% malt agar (for the fungal diseases) to give a final concentration of 50 parts per million of the compound under test. A streptomycin preparation (2 ml. containing 100 units per ml.) was added to the malt agar to prevent bacterial contamination of the fungal tests.
(§2) The agar preparations were dried overnight in Petri dishes and inoculated the following morning with the bacterial or fungal diseases using a multipoint inoculator. The antibacterial activity was assessed after 5 days and the antifungal activity after 6 days. The results of the tests are set out in Table 16 (anti bacterial activity) and Table 17 (antifungal activity). The results are graded as in Example 1 above.

[2] = test system: Puccinia recondita (wheat); assay: Fungicidal test against foliar disease A (foliage spray plus soil drench); assay type: in vivo; details: 10 days
[3] = test system: Agrobacterium tumifaciens; assay: Antibacterial agar test (B1); assay type: cell-based; details: 50 ppm; 5 days
[4] = test system: Piricularia oryzae (rice); assay type: in vivo; details: 7 days; for Amount of disease grading, disease E (Table 4): 100 ppm spray and drench
Pseudomonas syringae = assay: Antibacterial agar test (B6); assay type: cell-based; details: 50 ppm; 5 days
[5] = test system: Phytophthora infestans (tomato); assay type: in vivo; details: 3 days
Xanthomonas oryzae = assay type: cell-based; details: 50 ppm; 5 days
[6] = test system: Plasmopara viticola (vine); assay: Fungicidal test against foliar disease C (foliage spray plus soil drench); assay type: in vivo; details: 10 days
Xanthomonas malvacearum = assay: Antibacterial agar test (B3); assay type: cell-based; details: 50 ppm; 5 days
Method: as §1, §2

Streptomyces scabies = assay: Antibacterial agar test (B7); assay type: cell-based; details: 50 ppm; 5 days
Erwinia carotovora = assay: Antibacterial agar test (B4); assay type: cell-based; details: 50 ppm; 5 days
Uncinula necator (vine) = assay: Fungicidal test against foliar disease D (foliage spray plus soil drench); assay type: in vivo; details: 10 days
[7] = test system: Pieris brassicae (cabbage white caterpillars); assay: Pest toxicity test; assay type: in vivo; details: 0.1% by weight, 2 days
Aphis fabae = assay: Pest toxicity test; assay type: in vivo; details: 0.1% by weight; broad bean; 2 days
[8] = test system: Aedes aegypti (mosquito adults); assay: Pest toxicity test; assay type: in vivo; details: 0.01% by weight; plywood; 1 day
[9] = test system: Tetranychus telarius (red spider mites, adults); assay: Pest toxicity test; assay type: in vivo; details: 0.1% by weight; French bean; 3 days
[10] = test system: Phaedon cochleariae (mustard beetles); assay: Pest toxicity test; assay type: in vivo; details: in vivo
[11] = test system: Musca domestica (houseflies); assay: Pest toxicity test, contact test; assay type: in vivo; details: 0.1% by weight; milk/sugar; 2 days; flies sprayed directly
[12] = test system: Meloidogyne incognita (nematodes); assay: Pest toxicity test; assay type: in vivo; details: 0.01% by weight; water; 1 day
[13] = test system: Tetranychus telarius (red spider mites, eggs); assay: Pest toxicity test; assay type: in vivo; details: 0.1% by weight; French bean; 3 days
[14] = test system: Aedes aegypti (mosquito larvae); assay: Pest toxicity test; assay type: in vivo; details: 0.01% by weight; water; 1 day
[15] = test system: Plutella maculipennis (diamond back moth larvae); assay: Pest toxicity test; assay type: in vivo; details: in vivo
Megoura viceae = assay: Pest toxicity test; assay type: in vivo; details: 0.1% by weight; broad bean; 2 days
[16] = test system: Agriolimax reticulatus (slugs); assay: Molluscicidal activity test; assay type: in vivo, Agriolimax reticulatus (Mull); details: pellet with 4% by weight; 6 days; 10°C
Method: A weighed sample of the compound under test was dissolved in 0.5 c.c. of an ethanol and acetone mixture 50:50 v/v). The solution was diluted with 0.5 cc water and poured onto a calf feeding pellet in a glass Petri dish. The pellet was then air dried for 24 hours. The weight of compound used was chosen so that the dried pellet contained 4% by weight of the active ingredient. Two replicates each consisting of a plastic Petri dish containing a pellet, 2 slugs, and a moistened filter paper to maintain a high relative humidity were used in each test. The dishes were left in a cold room (10°C.) After 6 days the kill was assessed.
The slugs used were Agriolimax reticulatus (Mull), and they had been starved for 24 hours before the commencement of the tests.

Tomato = assay: Herbicidal test, pre- and post-emergence; assay type: in vivo; details: 10 kg/ha; scale 0 to 3 (complete kill)
Maize = assay: Herbicidal test, pre- and post-emergence; assay type: in vivo; details: 10 kg/ha; scale 0 to 3 (complete kill)
Lettuce = assay: Herbicidal test, pre- and post-emergence; assay type: in vivo; details: 10 kg/ha; scale 0 to 3 (complete kill)
Wheat = assay: Herbicidal test, pre- and post-emergence; assay type: in vivo; details: 10 kg/ha; scale 0 to 3 (complete kill)
[17] = 50 ppm spray + 200 ppm soil drench

With `O=[N+]([O-])c1cc([N+](=O)[O-])c(Nc2c(Cl)c(F)nc(F)c2Cl)cc1F` [Compound 6, 3,5-Dichloro-2,6-difluoro-4(2,4-dinitro-5-fluoroanilino)pyridine] the “Antibacterial activity grading B2” value [1] was 3 (0 to 5), the “Amount of disease grading, disease A” value [2, 17] was 0 (61 to 100) and the “Antibacterial activity grading B1” value [3] was 3 (0 to 5). For the same compound, the “Amount of disease grading, disease E” value [4, 17] was 3 (0 to 5), the “Antibacterial activity grading B6” value (Pseudomonas syringae) was 2 (6 to 25) and the “Amount of disease grading, disease B” value [5, 17] was 3 (0 to 5). For the same compound, the “Antibacterial activity grading B5” value (Xanthomonas oryzae) was 2 (6 to 25), the “Amount of disease grading, disease C” value [6, 17] was 3 (0 to 5) and the “Antibacterial activity grading B3” value (Xanthomonas malvacearum) was 3 (0 to 5). The “Antibacterial activity grading B7” value (Streptomyces scabies) was 1 (26 to 60), the “Antibacterial activity grading B4” value (Erwinia carotovora) was 1 (26 to 60) and the “Amount of disease grading, disease D” value (Uncinula necator (vine); [17]) was 2 (6 to 25).
In the case of `O=[N+]([O-])c1ccccc1Nc1c(Cl)c(F)nc(F)c1Cl` [Compound 11, 3,5-Dichloro-2,6-difluoro-4(2-nitroanilino)pyridine], the “Mortality grading (kill)” value [7] is reported as 0 (O represents less than 30% kill), the “Mortality grading (kill)” value (Aphis fabae) is reported as 0 (O represents less than 30% kill) and the “Mortality grading (kill)” value [8] is reported as 0 (O represents less than 30% kill). For the same compound, the “Mortality grading (kill)” value [9] was 0 (O represents less than 30% kill), the “Mortality grading (kill)” value [10] was 0 (key: O represents less than 30% kill; 1 represents 30 - 49% kill; 2 represents 60 - 90% kill; 3 represents over 90% kill; C indicates a chemosterilant effect.; A indicates an antifeeding effect.) and the “Mortality grading (kill), contact test” value [11] was 0 (O represents less than 30% kill). For the same compound, the “Mortality grading (kill)” value [12] was 2 (2 represents 60 - 90% kill), the “Mortality grading (kill)” value [13] was 0 (O represents less than 30% kill) and the “Mortality grading (kill)” value [14] was 0 (O represents less than 30% kill). For the same compound, the “Mortality grading (kill)” value [15] was 0 (key: O represents less than 30% kill; 1 represents 30 - 49% kill; 2 represents 60 - 90% kill; 3 represents over 90% kill; C indicates a chemosterilant effect.; A indicates an antifeeding effect.) and the “Mortality grading (kill)” value (Megoura viceae) was 0 (O represents less than 30% kill).
For `O=[N+]([O-])c1ccc(Nc2c(F)c(F)nc(F)c2F)c([N+](=O)[O-])c1` [Compound 15, 4(2,4-Dinitroanilino)-tetrafluoropyridine], the “Antibacterial activity grading B2” value [1] was 3 (0 to 5), the “Mortality grading (kill)” value [7] was 3 (3 represents over 90% kill) and the “Mortality grading (kill)” value (Aphis fabae) was 0 (O represents less than 30% kill). The “% Kill of slugs” value [16] was 50%, the “Mortality grading (kill)” value [8] was 0 (O represents less than 30% kill) and the “Amount of disease grading, disease A” value ([2]; 100 ppm spray and drench) was 2 (6 to 25). For the same compound, the “Antibacterial activity grading B1” value [3] was 3 (0 to 5), the “Mortality grading (kill)” value [9] was 3 (3 represents over 90% kill) and the “Mortality grading (kill)” value [10] was 2 (key: O represents less than 30% kill; 1 represents 30 - 49% kill; 2 represents 60 - 90% kill; 3 represents over 90% kill; C indicates a chemosterilant effect.; A indicates an antifeeding effect.). The “Antibacterial activity grading B6” value (Pseudomonas syringae) was 3 (0 to 5), the “Mortality grading (kill), contact test” value [11] was 2 (2 represents 60 - 90% kill) and the “Mortality grading (kill)” value [13] was 2 (2 represents 60 - 90% kill). For the same compound, the “Mortality grading (kill)” value [14] was 0 (O represents less than 30% kill), the “Antibacterial activity grading B5” value (Xanthomonas oryzae) was 3 (0 to 5) and the “Amount of disease grading, disease C” value ([6]; 100 ppm spray and drench) was 3 (0 to 5). For the same compound, the “Mortality grading (kill)” value [15] was 0 (key: O represents less than 30% kill; 1 represents 30 - 49% kill; 2 represents 60 - 90% kill; 3 represents over 90% kill; C indicates a chemosterilant effect.; A indicates an antifeeding effect.), the “Antibacterial activity grading B3” value (Xanthomonas malvacearum) was 3 (0 to 5) and the “Antibacterial activity grading B7” value (Streptomyces scabies) was 3 (0 to 5). The “Mortality grading (kill)” value (Megoura viceae) was 0 (O represents less than 30% kill), the “Antibacterial activity grading B4” value (Erwinia carotovora) was 3 (0 to 5) and the “Amount of disease grading, disease D” value (Uncinula necator (vine); 100 ppm spray and drench) was 3 (0 to 5).
`O=[N+]([O-])c1cc([N+](=O)[O-])c(Nc2c(Cl)c(Cl)nc(Cl)c2Cl)cc1F` [Compound 35, 4(5-Fluoro-2,4-dinitroanilino)tetrachloropyridine] was tested, and the “Antibacterial activity grading B2” value [1] was 0 (61 to 100), the “Amount of disease grading, disease A (Table 4)” value ([2]; 100 ppm spray and drench) was 2 (6 to 25) and the “Antibacterial activity grading B1” value [3] was 0 (61 to 100). For the same compound, the “Amount of disease grading, disease E (Table 4)” value [4] was 2 (6 to 25), the “Antibacterial activity grading B6” value (Pseudomonas syringae) was 2 (6 to 25) and the “Amount of disease grading, disease B (Table 4)” value ([5]; 100 ppm spray and drench) was 3 (0 to 5). The “Antibacterial activity grading B5” value (Xanthomonas oryzae) was 1 (26 to 60), the “Amount of disease grading, disease C (Table 4)” value ([6]; 100 ppm spray and drench) was 3 (0 to 5) and the “Antibacterial activity grading B3” value (Xanthomonas malvacearum) was 0 (61 to 100). The “Antibacterial activity grading B7” value (Streptomyces scabies) was 2 (6 to 25), the “Antibacterial activity grading B4” value (Erwinia carotovora) was 0 (61 to 100) and the “Amount of disease grading, disease D (Table 4)” value (Uncinula necator (vine); 100 ppm spray and drench) was 0 (61 to 100).
`O=[N+]([O-])c1ccc(Nc2c(Cl)c(F)nc(Cl)c2Cl)c(C(F)(F)F)c1` [Compound 44, 2-Fluoro-(4-nitro-2-trifluoromethylanilino)3,5,6-trichlorpyridine] was tested, and the “Antibacterial activity grading B2” value [1] was 3 (0 to 5), the “Mortality grading (kill)” value [7] was 3 (3 represents over 90% kill) and the “Mortality grading (kill)” value (Aphis fabae) was 0 (O represents less than 30% kill). The “Damage to plants, post-emergence” value (Tomato) was 3, the “Damage to plants, pre-emergence” value (Tomato) was 3 and the “Mortality grading (kill)” value [8] was 0 (O represents less than 30% kill). For the same compound, the “Damage to plants, post-emergence” value (Maize) was 1, the “Damage to plants, pre-emergence” value (Maize) was 0 and the “Amount of disease grading, disease A (Table 4)” value ([2]; 100 ppm spray and drench) was 2 (6 to 25). For the same compound, the “Damage to plants, post-emergence” value (Lettuce) was 3, the “Damage to plants, pre-emergence” value (Lettuce) was 2 and the “Antibacterial activity grading B1” value [3] was 3 (0 to 5). For the same compound, the “Mortality grading (kill)” value [9] was 3 (3 represents over 90% kill), the “Amount of disease grading, disease E (Table 4)” value [4] was 0 (61 to 100) and the “Mortality grading (kill)” value [10] was 0 (key: O represents less than 30% kill; 1 represents 30 - 49% kill; 2 represents 60 - 90% kill; 3 represents over 90% kill; C indicates a chemosterilant effect.; A indicates an antifeeding effect.). For the same compound, the “Antibacterial activity grading B6” value (Pseudomonas syringae) was 3 (0 to 5), the “Mortality grading (kill), contact test” value [11] was 3 (3 represents over 90% kill) and the “Mortality grading (kill)” value [13] was 3 (3 represents over 90% kill). For the same compound, the “Mortality grading (kill)” value [14] was 3 (3 represents over 90% kill), the “Antibacterial activity grading B5” value (Xanthomonas oryzae) was 3 (0 to 5) and the “Damage to plants, post-emergence” value (Wheat) was 0. The “Damage to plants, pre-emergence” value (Wheat) was 3, the “Amount of disease grading, disease C (Table 4)” value ([6]; 100 ppm spray and drench) was 3 (0 to 5) and the “Mortality grading (kill)” value [15] was 0 (key: O represents less than 30% kill; 1 represents 30 - 49% kill; 2 represents 60 - 90% kill; 3 represents over 90% kill; C indicates a chemosterilant effect.; A indicates an antifeeding effect.). For the same compound, the “Antibacterial activity grading B3” value (Xanthomonas malvacearum) was 3 (0 to 5), the “Antibacterial activity grading B7” value (Streptomyces scabies) was 3 (0 to 5) and the “Mortality grading (kill)” value (Megoura viceae) was 0 (O represents less than 30% kill). For the same compound, the “Antibacterial activity grading B4” value (Erwinia carotovora) was 3 (0 to 5) and the “Amount of disease grading, disease D (Table 4)” value (Uncinula necator (vine); 100 ppm spray and drench) was 3 (0 to 5).
